Blank lines part the entries; values can stand above or below the compound they belong to.
Experiments:
[1] = system: NCI panel of 58 human tumour cell lines; assay: NCI in vitro single-dose antiproliferative assay, panel of 58 tumour cell lines; format: cell-based; conditions: single concentration of 10 μM, read-out: cell inhibition (mean % growth inhibition, GI)
Method: (§1) The designed isatin derivatives 6a-i, 11a-c and 12a-c were examined for in vitro antitumor activity on NCI panel involving 58 distinct human tumour cell lines covering nine distinct types of cancer, at single concentration of 10 μM (supplementary file). […] Based on the findings, we concluded that none of compounds 6a, 6c, or 11a were able to increase cell inhibition by more than 20%. And by looking at the mean growth inhibition of the other compounds on each cancer, we discovered that, in addition to CNS cancer in compound 11c and leukaemia in compounds 12b and 12c, all the compounds had the strongest mean growth inhibition on breast cancer cell lines.
(§2) The supplementary data included descriptions of every experimental technique.
(§3) NCI-60 cancer cell lines screening
(§4) Primary anticancer assay was performed on a panel of sixty human tumour cell lines derived from nine neoplastic diseases, in accordance with the protocol of the Drug Evaluation Branch, National Cancer Institute, Bethesda, Maryland, USA. Tested compounds were added to the cell culture at a single concentration ([…]) and the cultures were incubated for 48 h. End point determinations were made with a protein binding dye, sulforhodamine B (SRB). Results for each tested compound were reported as the percent of growth of treated cells when compared to untreated control cells. The percentage growth was evaluated spectrophotometrically versus controls not treated with test agents 1. […]

CA I = target: T1, CA I (Homo sapiens, UniProt P00915); assay: Carbonic anhydrase inhibition, stopped-flow CO2 hydration, CA I; format: biochemical; conditions: stopped flow assay, mean of triplicate assays
T1 construct: made in house

CA IX [2] = target: T2, CA IX (Homo sapiens, UniProt Q16790); assay: Carbonic anhydrase inhibition, stopped-flow CO2 hydration, CA IX; format: biochemical; conditions: stopped flow assay, mean of triplicate assays
T2 construct: made in house

CA II = CA II (Homo sapiens, UniProt P00918); assay: biochemical
Method: Carbonic anhydrase I, II, and IX inhibition studies
The CO2 hydration actions catalyzed by carbonic anhydrase for targeted compounds herein
presented were measured using an Applied Photophysics stopped-flow instrument. The enzymes
are recombinant proteins that have been created in a lab. Following the initial rates of the CA-
catalyzed CO2 hydration reaction for a period of 10-100 s, phenol red (at a concentration of 0.2
mM) was used as an indicator, working at an absorbance maximum of 557 nm, with 20 mM
Hepes (pH 7.5) as a buffer, and 20 mM Na2SO4 (to maintain constant the ionic strength). The
CO2 concentrations used to determine the kinetic parameters and inhibition constants ranged
from 1.7 to 17 mM. At least six traces of the first 5-10% of the reaction were utilized to
determine the beginning velocity for each inhibitor. In the same way, the uncatalyzed rates were calculated and deducted from the total measured rates. Stock inhibitor solutions (0.1 mM) were
produced in distilled-deionized water, followed by dilutions with the assay buffer up to 0.01 nM.
Prior to the experiment, the inhibitor and enzyme solutions were preincubated together for 15
minutes at room temperature to allow for the development of the E-I complex. The inhibition
constants were calculated using non-linear least-squares methods using the ChengPrusoff
equation in PRISM 3. They reflect the average of at least three individual measurements 6, 7.

T47D cells [3] = assay: In vitro cytotoxicity against T47D (sulforhodamine B colorimetric test); conditions: Homo sapiens, 72 h, read-out: IC50 ± S.D. T47D
Method: Doxorubicin was set as reference in this assay.
The cytotoxic efficacy of the target compounds against T47D cells was determined, using the SRB colorimetric technique, as previously reported. Briefly, exponentially growing cells were trypsinized, counted and seeded at the appropriate densities (5000 cells/100 μL/ well) into 96-well microtiter plates.
Then, the cells were exposed to the tested compounds at the desired concentrations (0.01, 0.1, 1, 10, and 100 μM) or to 1% dimethyl sulfoxide (DMSO) for 72 h. At the end of the treatment period, the media were removed, and the cells were fixed with 10% trichloroacetic acid at 4 °C for 1 h. Following, the cells were washed with tap water four times and incubated with SRB 0.4% for 30 min. Excess dye was removed by washing repeatedly with 1% (vol/vol) acetic acid.
The protein-bound dye was dissolved in 10 mM Tris base solution for (optical density) OD determination at 510 nm using a Spectra Max plus Microplate Reader (Molecular Devices, CA).
Cell viability was expressed relative to the untreated control cells 2, 3.

T47D cells [4] = assay: NCI in vitro single-dose cellular antiproliferative assay, T47D cells; format: cell-based; conditions: Homo sapiens; T47D breast cancer cells, single concentration of 10 μM; read-out: GI% (growth inhibition)
Method: as §1, §2, §3, §4

VEGFR-2 = target: T3, VEGFR-2 (Homo sapiens, UniProt P35968); assay: VEGFR-2 inhibition assay (HTRF); format: biochemical; conditions: for IC50: mean ± SD of triplicate, read-out: VEGFR-2 IC50 ± S.D.
T3 construct: purchased BioAssay Systems EKIN-400
Method: HTRF (homogeneous time-resolved fluorescence) assay method was used to conduct inhibitory action of all newly synthesized compounds against VEGFR-2. VEGFR-2 kinase (BioAssay Systems - Kinase Assay Kit, EKIN-400) and its substrate were incubated for 5 min in a buffer solution with newly synthesized compounds/Sorafnib to initiate the enzymatic reaction, then ATP was added to the reaction mixture. Hold under 30 min at room temperature. The reaction was stopped by adding

T47D cells [5] = assay: Annexin V-FITC/PI apoptosis assay; format: cell-based, human; conditions: for Early apoptosis / Late apoptosis: 24 h, annexin V-FITC/PI; for increase of overall apoptosis in comparison to the control: versus untreated control
Text: To explore link between growth suppression activity of compounds 11b and 12b with initiation of apoptosis indicated by rising population of sub-G1 in treated T47D cell lines, the Annexin V-FITC/PI double labelling (AV/PI) apoptosis assay was done. The outcomes of the experiment are shown in Figure 4, showing that compounds 11b and 12b caused T47D cell lines to undergo early and late apoptosis. In fact, % of apoptotic cells amplified from 0.41% at early and 0.22% at late apoptosis in T47D cells that had not been treated to 31.0% of early and 12.07% of late apoptosis in T47D cell that had been treated with compound 11b and to 23.5% at early and 9.4% at late apoptosis of T47D cells that had been treated with compound 12b. According to these findings, compounds 11b and 12b increased the overall apoptosis of T47D cells by roughly 19 and 16.2 times, respectively, in comparison to the control.
The supplementary data included descriptions of every experimental technique. […]
μM of compounds 11b and 12b. […]
(§5) and fixed for 12 h. […] Then, the cells
Cell cycle analysis and apoptosis were […]
experiment has been carried out three times.
Annexin V-FITC apoptosis assay […]
washed with cold phosphate-buffer saline (PBS). Cells were then stained with Annexin V-FITC […]
The samples were analyzed using the flow cytometer 8, 9.

T47D cells [6] = assay: Cell cycle distribution analysis by flow cytometry; format: cell-based, human; conditions: 10 μM, 24 h
Method: DMSO (control) or compounds 11b and 12b were applied to T47D cells, and flow cytometry was used to determine the DNA concentration. Figure 3 presents the findings. […]
μM of compounds 11b and 12b.
as §5
Cell cycle analysis and apoptosis were
experiment has been carried out three times. […]

CA IX [7] = target: CA IX; set-up: method as in PMID 30445264; conditions: cancer-related CA IX isoform; cited from earlier work

T1 sequence (P00915 whole entry): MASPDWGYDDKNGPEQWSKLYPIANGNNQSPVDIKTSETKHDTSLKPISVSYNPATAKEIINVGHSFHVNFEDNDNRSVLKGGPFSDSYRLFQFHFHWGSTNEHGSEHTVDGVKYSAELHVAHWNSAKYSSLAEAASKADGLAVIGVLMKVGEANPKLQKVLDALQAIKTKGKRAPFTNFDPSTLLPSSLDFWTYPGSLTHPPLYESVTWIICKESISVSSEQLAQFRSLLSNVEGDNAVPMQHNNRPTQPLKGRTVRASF
T3 sequence (P35968 20-1356): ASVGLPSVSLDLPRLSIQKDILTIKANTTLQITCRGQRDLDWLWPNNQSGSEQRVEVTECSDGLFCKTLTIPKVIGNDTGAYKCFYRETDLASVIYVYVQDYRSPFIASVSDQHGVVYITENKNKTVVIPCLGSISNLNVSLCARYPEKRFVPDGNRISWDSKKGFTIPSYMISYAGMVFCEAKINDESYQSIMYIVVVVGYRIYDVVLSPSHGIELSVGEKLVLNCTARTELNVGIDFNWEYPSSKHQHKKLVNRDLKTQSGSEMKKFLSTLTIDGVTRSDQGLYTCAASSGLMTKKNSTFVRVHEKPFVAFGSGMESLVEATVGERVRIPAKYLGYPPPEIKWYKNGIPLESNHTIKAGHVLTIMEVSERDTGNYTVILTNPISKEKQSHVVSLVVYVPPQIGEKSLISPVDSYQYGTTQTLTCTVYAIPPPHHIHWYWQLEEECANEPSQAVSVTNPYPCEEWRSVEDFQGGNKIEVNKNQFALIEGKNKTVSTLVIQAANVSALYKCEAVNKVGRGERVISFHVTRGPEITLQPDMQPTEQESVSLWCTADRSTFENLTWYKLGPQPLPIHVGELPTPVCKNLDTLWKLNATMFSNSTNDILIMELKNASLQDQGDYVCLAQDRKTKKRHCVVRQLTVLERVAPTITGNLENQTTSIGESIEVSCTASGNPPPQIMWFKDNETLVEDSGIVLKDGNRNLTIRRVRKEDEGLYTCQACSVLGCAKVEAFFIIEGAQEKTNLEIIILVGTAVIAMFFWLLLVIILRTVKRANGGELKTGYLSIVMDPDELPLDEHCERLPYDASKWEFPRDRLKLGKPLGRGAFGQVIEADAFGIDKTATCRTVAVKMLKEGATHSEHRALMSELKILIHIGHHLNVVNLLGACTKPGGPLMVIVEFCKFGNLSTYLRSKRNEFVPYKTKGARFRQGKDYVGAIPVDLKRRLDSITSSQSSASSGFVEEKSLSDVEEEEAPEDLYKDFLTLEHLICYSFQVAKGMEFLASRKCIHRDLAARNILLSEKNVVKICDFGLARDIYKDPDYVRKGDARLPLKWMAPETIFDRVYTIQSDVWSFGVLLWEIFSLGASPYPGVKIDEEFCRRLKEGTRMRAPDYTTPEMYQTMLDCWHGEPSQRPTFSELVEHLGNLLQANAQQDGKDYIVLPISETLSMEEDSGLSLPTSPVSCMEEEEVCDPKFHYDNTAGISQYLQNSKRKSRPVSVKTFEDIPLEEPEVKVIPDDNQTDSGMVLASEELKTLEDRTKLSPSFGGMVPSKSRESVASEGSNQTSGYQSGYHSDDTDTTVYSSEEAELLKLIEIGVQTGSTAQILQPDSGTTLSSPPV

melting point: 250 to 252 °C
SMILES: COc1ccc(/C(C)=N/N=C2/C(=O)Nc3ccccc32)cc1S(N)(=O)=O [Compound 6a]
inhibition at 10 µM [1]: ≤ 20%

melting point: 262 to 264 °C
SMILES: COc1ccc(/C(C)=N/N=C2/C(=O)Nc3ccc(F)cc32)cc1S(N)(=O)=O [Compound 6b]

melting point: 266 to 268 °C
SMILES: COc1ccc(/C(C)=N/N=C2/C(=O)Nc3c(F)cccc32)cc1S(N)(=O)=O [Compound 6c]
inhibition at 10 µM [1]: ≤ 20%

melting point: 268 to 270 °C
SMILES: COc1ccc(/C(C)=N/N=C2/C(=O)Nc3ccc(Cl)cc32)cc1S(N)(=O)=O [Compound 6d]

melting point: 278 to 280 °C
SMILES: COc1ccc(/C(C)=N/N=C2/C(=O)Nc3c(Cl)cccc32)cc1S(N)(=O)=O [Compound 6e]

melting point: 274 to 276 °C
Ki (CA I): > 100 µM
Ki (CA IX [2]): > 100 µM
Ki (CA II): > 100 µM
inhibition at 10 µM (VEGFR-2): 86.8%
IC50 (VEGFR-2): 0.0567 ± 0.00072 µM
SMILES: COc1ccc(/C(C)=N/N=C2/C(=O)Nc3ccc(Br)cc32)cc1S(N)(=O)=O [Compound 6f]
IC50 (T47D cells [3]): 5.45 ± 0.24 µM
inhibition at 10 µM (T47D cells [4]): 54%

melting point: 276 to 278 °C
SMILES: COc1ccc(/C(C)=N/N=C2/C(=O)Nc3cc(Br)ccc32)cc1S(N)(=O)=O [Compound 6g]

melting point: 264 to 266 °C
SMILES: COc1ccc2c(c1)/C(=N\N=C(/C)c1ccc(OC)c(S(N)(=O)=O)c1)C(=O)N2 [Compound 6h]

melting point: 270 to 272 °C
SMILES: COc1ccc(/C(C)=N/N=C2/C(=O)Nc3ccc(OC(F)(F)F)cc32)cc1S(N)(=O)=O [Compound 6i]
IC50 (T47D cells [3]): 24.1 ± 1.08 µM
inhibition at 10 µM (T47D cells [4]): 32%

SMILES: COc1ccc(/C(C)=N/N=C2/C(=O)N(C)c3ccccc32)cc1S(N)(=O)=O [Compound 11a]
inhibition at 10 µM [1]: ≤ 20%

melting point: 248 to 250 °C
Ki (CA I): > 100 µM
Ki (CA IX [2]): > 100 µM
Ki (CA II): > 100 µM
inhibition at 10 µM (VEGFR-2): 72.7%
IC50 (VEGFR-2): 0.0634 ± 0.00072 µM
SMILES: COc1ccc(/C(C)=N/N=C2/C(=O)N(C)c3ccc(Cl)cc32)cc1S(N)(=O)=O [Compound 11b]
Early apoptosis (T47D cells [5]): 31.0%
Late apoptosis (T47D cells [5]): 12.07%
increase of overall apoptosis in comparison to the control (T47D cells [5]): roughly 19 times
IC50 (T47D cells [3]): 1.83 ± 0.08 µM
inhibition at 10 µM (T47D cells [4]): 55%
%G0/G1 (T47D cells [6]): 68.42%
%Sub-G1 (T47D cells [6]): 45.88%

melting point: 263 to 265 °C
Ki (CA I): > 100 µM
Ki (CA IX [2]): > 100 µM
Ki (CA II): > 100 µM
inhibition at 10 µM (VEGFR-2): 92%
IC50 (VEGFR-2): 0.0301 ± 0.00031 µM
SMILES: COc1ccc(/C(C)=N/N=C2/C(=O)N(C)c3ccc(Br)cc32)cc1S(N)(=O)=O [Compound 11c]
IC50 (T47D cells [3]): 10.4 ± 0.47 µM
inhibition at 10 µM (T47D cells [4]): 52%

melting point: 235 to 237 °C
SMILES: COc1ccc(/C(C)=N/N=C2/C(=O)N(Cc3ccccc3)c3ccccc32)cc1S(N)(=O)=O [Compound 12a]
IC50 (T47D cells [3]): 11.6 ± 0.52 µM
inhibition at 10 µM (T47D cells [4]): 57%

melting point: 245 to 247 °C
Ki (CA I): > 100 µM
Ki (CA IX [2]): > 100 µM
Ki (CA II): > 100 µM
inhibition at 10 µM (VEGFR-2): 97.2%
IC50 (VEGFR-2): 0.0231 ± 0.00041 µM
SMILES: COc1ccc(/C(C)=N/N=C2/C(=O)N(Cc3ccccc3)c3ccc(Cl)cc32)cc1S(N)(=O)=O [Compound 12b]
Early apoptosis (T47D cells [5]): 23.5%
Late apoptosis (T47D cells [5]): 9.4%
increase of overall apoptosis in comparison to the control (T47D cells [5]): ~16.2 times
IC50 (T47D cells [3]): 3.59 ± 0.16 µM
inhibition at 10 µM (T47D cells [4]): 28%
%S (T47D cells [6]): 41.05%
%Sub-G1 (T47D cells [6]): 39.15%

melting point: 260 to 262 °C
SMILES: COc1ccc(/C(C)=N/N=C2/C(=O)N(Cc3ccccc3)c3ccc(Br)cc32)cc1S(N)(=O)=O [Compound 12c]
IC50 (T47D cells [3]): 16.5 ± 0.74 µM
inhibition at 10 µM (T47D cells [4]): 39%

SMILES: COc1cccc2c1C(=O)c1c(O)c3c(c(O)c1C2=O)C[C@@](O)(C(=O)CO)C[C@@H]3O[C@H]1C[C@H](N)[C@H](O)[C@H](C)O1 [Doxorubicin, reference compound]
IC50 (T47D cells [3]): 2.26 ± 0.1 µM

SMILES: CN1C(=O)/C(=N\c2ccc(NC(=O)Nc3ccc(S(N)(=O)=O)cc3)cc2)c2cc(Cl)ccc21 [compound II]
Ki (CA IX [7]): 0.0052 µM

From PMC10134960, “Discovery of sulfonamide-tethered isatin derivatives as novel anticancer agents and VEGFR-2 inhibitors” (Journal of Enzyme Inhibition and Medicinal Chemistry, 2023)
